# From patent publication US3979508A, “Compositions and methods therewith for penicillin hypersensitivity detection” (Kremers-Urban Company, priority 1975, dated 1976)
# System: penicillin hypersensitivity (patients)
# Test: Skin tests for penicillin hypersensitivity: monostereoisomeric penicilloyl-poly-L-lysine vs mixture of stereoisomers (Table II)
# Type: in vivo, human
# Procedure: One of the uses for the conjugates of this invention is in skin testing for penicillin hypersensitivity. The conjugated compositions are prepared for skin testing by first dissolving the composition in buffered isotonic solutions, having a pH in the range from 7 to 8. For example, the conjugates prepared above may be diluted with aqueous solutions 0.15 M NaCl in 0.01 M phosphate, pH 7.6. In addition, other physiological salt solutions may be used.
# Intradermal injections may be made of the foregoing solutions with a 26 guage needle, the volume injected may be generally about 0.01 to 0.03 cc. Alternatively, the conjugate may be applied by the scratch test technique. The development of a wheal at the injection site after about 20 minutes indicates a positive reaction, and penicillin hypersensitivity.
# Penicillin hypersensitivity tests carried out with the conjugate compositions of this invention reflect the numerous advantages of penicillin hypersensitivity determinations made with such compositions. […] In Table II the distribution of skin reactions is shown by history of penicillin therapy and hypersensitivity. […] (See column 2, for example, showing the percentages of patients tested who had […] skin test.)
# [1] = GROUP I: claimed prior history of non-sensitivity and previous penicillin treatments
# [2] = GROUP II: claimed prior history of sensitivity and previous penicillin treatments
# [3] = GROUP III: no prior history of sensitivity and no previous penicillin treatments
substance,measurement,setting,value
penicilloyl-poly-L-lysine [PPL],NEGATIVE SKIN TESTS %,[1],91.5%
same,NEGATIVE SKIN TESTS No.,[1],4223
same,NEITHER NEGATIVE NOR POSITIVE SKIN TESTS %,[1],0.7%
same,NEITHER NEGATIVE NOR POSITIVE SKIN TESTS No.,[1],36
same,POSITIVE SKIN TESTS %,[1],7.8%
same,POSITIVE SKIN TESTS No.,[1],358
same,NEGATIVE SKIN TESTS %,[2],77.7%
same,NEGATIVE SKIN TESTS No.,[2],143
same,NEITHER NEGATIVE NOR POSITIVE SKIN TESTS %,[2],nil
same,NEITHER NEGATIVE NOR POSITIVE SKIN TESTS No.,[2],nil
same,POSITIVE SKIN TESTS %,[2],22.3%
same,POSITIVE SKIN TESTS No.,[2],41
same,NEGATIVE SKIN TESTS %,[3],96.5%
same,NEGATIVE SKIN TESTS No.,[3],637
same,NEITHER NEGATIVE NOR POSITIVE SKIN TESTS %,[3],0.2%
same,NEITHER NEGATIVE NOR POSITIVE SKIN TESTS No.,[3],1
same,POSITIVE SKIN TESTS %,[3],3.3%
same,POSITIVE SKIN TESTS No.,[3],22
same,NEGATIVE SKIN TESTS %,"TOTALS, all groups",91.6%
same,NEGATIVE SKIN TESTS No.,"TOTALS, all groups",5003
same,NEITHER NEGATIVE NOR POSITIVE SKIN TESTS %,"TOTALS, all groups",0.7%
same,NEITHER NEGATIVE NOR POSITIVE SKIN TESTS No.,"TOTALS, all groups",37
same,POSITIVE SKIN TESTS %,"TOTALS, all groups",7.7%
same,POSITIVE SKIN TESTS No.,"TOTALS, all groups",421
